US7572801B2, “Pyridopyrimidinone derivatives which are HM74A agonists” (Hoffmann-La Roche Inc., priority 2007, dated 2009)

Target: T1, HM74A (Homo sapiens, UniProt Q8TDS4)
T1 construct: expressed in transfected cells; host or cells: HEK-293, stably transfected (pcDNA3.1 vectors), co-expressing chimeric G protein Gqi9
Experiment: Secondary fluorescent calcium indicator assay (FLIPR)
Type: cell-based
Settings: stable transfected HEK-293 cells expressing HM74A and chimeric G protein Gqi9
Method: Secondary Fluorescent Calcium Indicator Assay (FLIPR)
HEK-293 cells were grown in tissue culture medium (DMEM/Nut mix F12 Medium with Glutamax I (Invitrogen), containing 10% FBS) at 37° C. in a 5% CO2 atmosphere. These cells were cultured in 6-well dishes at 3×10^5 cells/well and double transfected with DNA vectors (pcDNA3.1, Invitrogen) expressing either HM74A or HM74 and the chimeric G protein Gqi9. Two days after transfection the wells were combined and plated in 150 cm^2 flasks, in the presence of 50 μg/ml Hygromycin (Invitrogen) and 500 μg/ml Geneticin (Gibco). Fourteen days after plating, colonies were picked, expanded and analyzed for expression using a functional assay (FLIPR). Stable transfected HEK-293 cells expressing either HM74A or HM74 and the chimeric G protein Gqi9 were plated at 50,000 cells/well in black 96-well plates with clear bottom (Costar) and cultured to confluency overnight in growth media (DMEM/Nut mix F12 Medium with Glutamax I (Invitrogen), containing 10% FBS) at 37° C. in a humidified cell incubator containing 5% CO2. Growth media was aspirated and replaced with 100 μl of 1× FLIPR Calcium Assay Dye (Molecular Devices) in Hank's balanced salt solution (HBSS) containing 10 mM HEPES, and […] probenecid (Sigma), for 1 hour at 37° C. Cell plates were transferred to a FLIPR unit (Molecular Devices), and 50 μl of 3× compound dilution were added. Fluorescence emissions were measured and the effects of compounds were expressed as % stimulation of maximal nicotinic acid response (100 μM). Sigmoidal curves were fitted using the XLfit3 program (ID Business Solutions Ltd. UK) and EC50 values determined.

T1 sequence (Q8TDS4 whole entry): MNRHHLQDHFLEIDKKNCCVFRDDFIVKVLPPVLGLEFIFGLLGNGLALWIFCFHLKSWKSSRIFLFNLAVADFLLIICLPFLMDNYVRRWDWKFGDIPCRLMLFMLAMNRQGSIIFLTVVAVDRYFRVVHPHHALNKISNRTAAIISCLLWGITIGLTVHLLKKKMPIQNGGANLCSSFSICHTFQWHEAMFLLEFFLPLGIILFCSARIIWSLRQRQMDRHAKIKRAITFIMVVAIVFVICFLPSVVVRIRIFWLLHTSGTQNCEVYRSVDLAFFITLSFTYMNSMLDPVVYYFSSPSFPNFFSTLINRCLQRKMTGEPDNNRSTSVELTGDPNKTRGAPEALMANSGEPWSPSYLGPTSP

Point of comparison: `O=c1[nH]c(COc2ccccc2)nc2ncccc12` [Example 2, 2-Phenoxymethyl-3H-pyrido[2,3-d]pyrimidin-4-one], EC50 5710 nM. Against it:
- COc1ccc(CCCOc2nc3ncccc3c(=O)[nH]2)cc1 [Example 28, 2-[3-(4-Methoxy-phenyl)-propoxy]-3H-pyrido[2,3-d]pyrimidin-4-one] — 2.1-fold lower, 2710 nM
- Cc1ccccc1OCCCOc1nc2ncccc2c(=O)[nH]1 [Example 58, 2-(3-o-Tolyloxy-propoxy)-3H-pyrido[2,3-d]pyrimidin-4-one] — 13-fold lower, 426 nM
